Here are results for 11 compounds from PMC3875306 (Bioorganic & medicinal chemistry letters, 2013).

Series [1] has as its system rat models of addiction. The following applies: cited from earlier work.
For series [2], the system named is squirrel monkey models of addiction. The following applies: cited from earlier work.
Series [3] deals with rat model of anxiety. The following applies: cited from earlier work.
The subject of series [4] is acoustic prepulse inhibition models. The settings on record: cited from earlier work.
Series [5] has as its system rat models of post-operative pain. The following applies: cited from earlier work.
For series [6], the system named is rat models of neuropathic pain. The following applies: cited from earlier work.
Series [7] concerns the target human mGlu1 (Homo sapiens, UniProt Q13255). In words: Calcium mobilization mGlu1 assay. The settings on record: for preference in mGlu1 NAM activity for the R-enantiomer versus the S-enantiomer: 15 vs 14, 17 vs 16; for LLE (ligand-lipophilicity efficiency): LLE = pIC50 - cLogP. A general note: Calcium flux is commonly read through the fluorescence of an indicator in the cells.

The conditions of series [8]: IV dosing, rat, in words.
The subject of series [9] is mGlu2–8. The following applies: at 10 µM.
Series [10] has as its target rat mGlu1 (Rattus norvegicus, UniProt P23385). In words: Functional cell based assay against rat mGlu1. The following applies: HEK 293A TREx cells expressing rat mGlu1.
Series [11] relates to 68 clinically relevant GPCRs, ion channels, kinases, and transporters. In words: Radioligand binding assay panel. The settings on record: 10 µM; significant = more than 50% inhibition of radioligand binding.
A short description of series [12]: in vivo. The settings on record: male, Sprague-Dawley, rat, plasma, iv, 0.2 mg/kg.

The structures appear in SMILES notation.

The half-life is the time in which the quantity being followed falls by half.

Chain of human mGlu1 (Q13255 19-1194): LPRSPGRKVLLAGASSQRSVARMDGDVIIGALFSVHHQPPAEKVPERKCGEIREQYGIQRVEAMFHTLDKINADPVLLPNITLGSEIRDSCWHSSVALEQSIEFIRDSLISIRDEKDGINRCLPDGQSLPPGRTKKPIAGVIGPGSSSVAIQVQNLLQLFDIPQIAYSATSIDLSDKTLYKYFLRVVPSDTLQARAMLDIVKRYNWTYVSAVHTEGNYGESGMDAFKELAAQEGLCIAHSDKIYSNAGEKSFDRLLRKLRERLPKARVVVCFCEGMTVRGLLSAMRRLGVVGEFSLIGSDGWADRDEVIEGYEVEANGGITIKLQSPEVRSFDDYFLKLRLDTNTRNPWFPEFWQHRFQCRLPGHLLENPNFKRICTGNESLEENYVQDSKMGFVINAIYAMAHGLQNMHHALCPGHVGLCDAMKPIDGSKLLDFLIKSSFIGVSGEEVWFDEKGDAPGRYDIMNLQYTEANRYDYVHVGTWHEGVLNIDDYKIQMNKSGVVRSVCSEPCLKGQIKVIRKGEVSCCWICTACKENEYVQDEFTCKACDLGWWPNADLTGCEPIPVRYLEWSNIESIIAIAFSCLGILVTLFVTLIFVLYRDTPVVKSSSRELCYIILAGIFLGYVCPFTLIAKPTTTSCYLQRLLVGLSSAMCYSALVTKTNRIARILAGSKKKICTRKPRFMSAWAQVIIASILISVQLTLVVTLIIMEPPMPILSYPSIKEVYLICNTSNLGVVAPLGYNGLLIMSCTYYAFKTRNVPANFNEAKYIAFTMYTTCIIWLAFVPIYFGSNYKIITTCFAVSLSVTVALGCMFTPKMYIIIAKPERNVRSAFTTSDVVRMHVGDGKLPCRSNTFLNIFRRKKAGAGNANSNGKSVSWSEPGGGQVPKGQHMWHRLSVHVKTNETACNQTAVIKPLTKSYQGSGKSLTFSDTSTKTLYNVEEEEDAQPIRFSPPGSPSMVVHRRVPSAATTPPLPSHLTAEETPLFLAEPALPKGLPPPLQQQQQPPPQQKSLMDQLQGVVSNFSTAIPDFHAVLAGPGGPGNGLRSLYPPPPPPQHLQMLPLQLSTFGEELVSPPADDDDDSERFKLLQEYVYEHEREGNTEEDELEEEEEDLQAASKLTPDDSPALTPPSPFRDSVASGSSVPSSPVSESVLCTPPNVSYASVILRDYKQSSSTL
Chain of rat mGlu1 (P23385 19-1199): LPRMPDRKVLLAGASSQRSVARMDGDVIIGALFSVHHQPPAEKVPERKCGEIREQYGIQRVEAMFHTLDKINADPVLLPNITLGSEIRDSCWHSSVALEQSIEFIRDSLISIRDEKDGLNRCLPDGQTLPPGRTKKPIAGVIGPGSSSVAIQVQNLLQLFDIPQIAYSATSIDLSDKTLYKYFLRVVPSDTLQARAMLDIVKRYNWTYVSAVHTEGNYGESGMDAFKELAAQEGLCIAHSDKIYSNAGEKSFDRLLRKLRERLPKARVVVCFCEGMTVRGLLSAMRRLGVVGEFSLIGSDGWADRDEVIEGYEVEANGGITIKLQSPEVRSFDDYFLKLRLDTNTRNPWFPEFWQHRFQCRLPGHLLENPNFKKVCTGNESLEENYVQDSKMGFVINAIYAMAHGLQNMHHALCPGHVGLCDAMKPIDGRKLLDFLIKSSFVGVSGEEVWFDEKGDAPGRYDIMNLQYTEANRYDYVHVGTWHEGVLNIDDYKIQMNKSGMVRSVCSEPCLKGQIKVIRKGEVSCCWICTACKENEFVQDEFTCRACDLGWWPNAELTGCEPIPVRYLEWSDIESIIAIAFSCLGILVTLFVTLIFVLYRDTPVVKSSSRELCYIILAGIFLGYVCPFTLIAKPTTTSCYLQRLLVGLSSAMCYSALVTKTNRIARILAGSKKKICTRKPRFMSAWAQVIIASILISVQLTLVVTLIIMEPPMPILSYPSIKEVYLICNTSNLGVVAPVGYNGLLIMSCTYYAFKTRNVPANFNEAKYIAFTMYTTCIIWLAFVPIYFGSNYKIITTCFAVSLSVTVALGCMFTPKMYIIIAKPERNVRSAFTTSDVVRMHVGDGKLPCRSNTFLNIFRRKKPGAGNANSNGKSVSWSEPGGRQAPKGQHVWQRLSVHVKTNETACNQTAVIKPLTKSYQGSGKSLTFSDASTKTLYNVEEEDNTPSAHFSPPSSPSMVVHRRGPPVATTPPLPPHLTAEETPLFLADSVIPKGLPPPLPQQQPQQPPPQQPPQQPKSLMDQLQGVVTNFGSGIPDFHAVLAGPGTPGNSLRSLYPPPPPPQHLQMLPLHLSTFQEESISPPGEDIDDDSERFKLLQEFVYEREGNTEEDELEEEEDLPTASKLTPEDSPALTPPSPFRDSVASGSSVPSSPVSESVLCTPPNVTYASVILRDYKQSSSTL

For `COC1CCC(C(=O)c2ccc3nc4c(cc3c2)CCCO4)CC1` (centres unmarked) [Compound 1], the “efficacy in rat models of addiction” value in series [1] is reported as “efficacious”. The “efficacy in squirrel monkey models of addiction” value in [2] was “efficacious”. In addition, the “efficacy in a rat model of anxiety” value in [3] is reported as “efficacious”. Moreover, the “antipsychotic activity, acoustic prepulse inhibition models, mice” value in series [4] was “Antipsychotic activity”.
In the case of `CN(C)c1ccnc2sc3c(=O)n(N4CCCCCC4)cnc3c12` [Compound 2], the “analgesia in rat models of post-operative pain” value in [5] is recorded as “analgesic”. In addition, the “analgesia in rat models of neuropathic pain” value in series [6] is on record as “analgesic”.
Consider `C[C@@H]1CN(c2ccccn2)CCN1C(=O)C12CC3CC(CC(C3)C1)C2` [Compound 15], for which the “preference in mGlu1 NAM activity for the R-enantiomer versus the S-enantiomer” value in series [7] stood at 15 fold.
On the same count and under the same terms, the entry for `C[C@@H]1CN(C(=O)C23CC4CC(CC(C4)C2)C3)CCN1c1ccccn1` [Compound 17] is “sixfold”.
Take `C[C@@H]1CN(C(=O)C23CC4CC(CC(C4)C2)C3)CCN1c1ccncc1` [Compound 39]: the “mGlu1 activity at the top concentration tested” value in series [7] (30 µM) is reported as “no activity”.
Regarding `C[C@@H]1CN(c2ccccc2C#N)CCN1C(=O)C12CC3CC(CC(C3)C1)C2` [Compound 46], in series [7], the “LLE (ligand-lipophilicity efficiency)” value was 1.82.
On the same count and under the same terms, the figure for `C[C@@H]1CN(c2cccc(F)n2)CCN1C(=O)C12CC3CC(CC(C3)C1)C2` [Compound 48] is 1.85; for `C[C@@H]1CN(c2ccc(F)cn2)CCN1C(=O)C12CC3CC(CC(C3)C1)C2` [Compound 49] it is 1.73.
The same measure, in the same setting: the figure for `C[C@@H]1CN(c2ncccc2C#N)CCN1C(=O)C12CC3CC(CC(C3)C1)C2` [Compound 51] is 2.24; for `C[C@@H]1CN(c2ccncc2C#N)CCN1C(=O)C12CC3CC(CC(C3)C1)C2` [Compound 53] it is 2.89.
As for `C[C@@H]1CN(c2cccnc2C#N)CCN1C(=O)C12CC3CC(CC(C3)C1)C2` [Compound 54], in [8], the clearance result is recorded as “moderate to high” and the volume of distribution result was “moderate”. In addition, in series [9], the “activity against mGlu2–8” value is “inactive”. Moreover, the “activity at rat mGlu1 compared with human mGlu1” value in [10] is listed as “little difference across species”. Further, the “responses in radioligand binding panel of 68 targets” value in series [11] is recorded as “no significant responses”. Also, the half-life in series [12] was approximately 60 min.
